Experimental data taken from EP0054589B1, “Organic phosphoric acid ester derivatives, a process for preparing the same and insecticidal, miticidal or nematocidal compositions containing the same” (priority 1980, dated 1982).

Assays:
Tea = test: Phytotoxicity on various crops; type: in vivo; parameters: key: Symbol — indicates that no toxicity was observed; conditions: 500 ppm sprayed; checked visually after 10 days
Method: (§1) An emulsifiable concentrate prepared as described in Formulation Example 2 was diluted with water to a concentration of 500 ppm based on the effective ingredient and sprayed sufficiently using a spray-gun onto various test plants. The plants were kept in a green house. After 10 days from the application phytotoxicity was checked visually. The test was replicated 3 times for each compound.

Tomato = test: Phytotoxicity on various crops; type: in vivo; parameters: key: Symbol — indicates that no toxicity was observed; conditions: 500 ppm sprayed; checked visually after 10 days
Method: as §1

Kidney Bean = test: Phytotoxicity on various crops; type: in vivo; parameters: key: Symbol — indicates that no toxicity was observed; conditions: 500 ppm sprayed; checked visually after 10 days
Method: as §1

Cotton = test: Phytotoxicity on various crops; type: in vivo; parameters: key: Symbol — indicates that no toxicity was observed; conditions: 500 ppm sprayed; checked visually after 10 days
Method: as §1

Beet = test: Phytotoxicity on various crops; type: in vivo; parameters: key: Symbol — indicates that no toxicity was observed; conditions: 500 ppm sprayed; checked visually after 10 days
Method: as §1

Green Pepper = test: Phytotoxicity on various crops; type: in vivo; parameters: key: Symbol — indicates that no toxicity was observed; conditions: 500 ppm sprayed; checked visually after 10 days
Method: as §1

Rice = test: Phytotoxicity on various crops; type: in vivo; parameters: key: Symbol — indicates that no toxicity was observed; conditions: 500 ppm sprayed; checked visually after 10 days
Method: as §1

Apple = test: Phytotoxicity on various crops; type: in vivo; parameters: key: Symbol — indicates that no toxicity was observed; conditions: 500 ppm sprayed; checked visually after 10 days
Method: as §1

Cabbage = test: Phytotoxicity on various crops; type: in vivo; parameters: key: Symbol — indicates that no toxicity was observed; conditions: 500 ppm sprayed; checked visually after 10 days
Method: as §1

Cucumber = test: Phytotoxicity on various crops; type: in vivo; parameters: key: Symbol — indicates that no toxicity was observed; conditions: 500 ppm sprayed; checked visually after 10 days
Method: as §1

egg plant = test: Phytotoxicity on various crops; type: in vivo; parameters: key: Symbol — indicates that no toxicity was observed; conditions: 500 ppm sprayed; checked visually after 10 days
Method: as §1

rice stem borer = test: Insecticidal effect on rice stem borer, 3rd-instar larvae (rice seedling dip); type: in vivo, Chilo suppressalis; conditions: after 72 hours, 25°C
Method: (A) A wettable powder prepared as described in Formulation Example 5 was diluted with water to a predetermined concentration. Rice seedlings were dipped into the dilute solution and placed in a 60 ml volume cup made of vinyl chloride resin, and 10 3rd-instar larvae of rice stem borer were put in each cup. The cups were capped and maintained at 25°C.
(B) A wettable powder prepared as described in Formulation Example 7 was diluted with water to a predetermined concentration. Rice seedlings were dipped into the dilute solution and placed in a 60 ml volume cup made of vinyl chloride resin, and 10 3rd-instar larvae of rice stem borer were put in each cup. The cups were capped and maintained at 25°C.

tobacco cutworm [1] = test: Insecticidal effect on tobacco cutworm (cabbage leaf dip); type: in vivo, Prodenia litura; conditions: after 48 hours, 25°C
Method: (A) An emulsifiable concentrate prepared as described in Formulation Example 1 was diluted with water to a predetermined concentration and then cabbage leaves were dipped into the dilute solution and dried in air and placed in a 60 ml volume cup made of vinyl chloride resin. 3rd-instar larvae of tobacco cutworm were put in each cup and maintained at 25°C. After 48 hours, percent mortality was assessed. The test was replicated 3 times for each compound using 30 insects in each test.
(B) An emulsifiable concentrate prepared as described in Formulation Example 3 was diluted with water to a predetermined concentration and then cabbage leaves were dipped into the dilute solution and dried in air and placed in a 60 ml volume cup made of vinyl chloride resin. 3rd-instar larvae of tobacco cutworm were put in each cup and maintained at 25°C. After 48 hours, percent mortality was assessed. The test was replicated 3 times for each compound using 30 insects in each test.

tobacco cutworm [2] = test: Long-lasting insecticidal effect on tobacco cutworm (sprayed cabbage plantlet); type: in vivo, Prodenia litura; conditions: Table 5, concentration 500 (unit not given), mortality after 48 hours
Method: (§2) (A) An emulsifiable concentrate prepared as described in Formulation Example 2 was diluted with water to a predetermined concentration and sprayed onto a cabbage plantlet in a flower pot of 15 cm in diameter using a spray-gun sufficiently and the tests plants were placed in a green house. The leaves of the plants were cut off on the 3rd, 5th, 7th, 10th and 15th day and placed in a 60 ml volume cup and 3rd-instar larvae of tobacco cutworm were put in each cup. The cups were kept in an incubator (25°C). After 48 hours, percent mortality was assessed. The tests was replicated 3 times for each compound using 30 insects in each test.
as §2, with “(B) An” for “(A) An”, “Example 3” for “Example 2”, “and 1 5th” for “and 15th”

[3] = Table 1, 500 ppm, wettable powder as Formulation Example 5
[4] = Table 3, 500 ppm, emulsifiable concentrate as Formulation Example 1
[5] = Table 1, 100 ppm, wettable powder as Formulation Example 5
[6] = Table 2, 100 ppm, wettable powder as Formulation Example 7
[7] = Table 4, 100 ppm, emulsifiable concentrate as Formulation Example 3

CCCOP(=O)(Oc1ccc2c(c1)OC(C)=CC2(C)C)SCCC (stereo not drawn) [Compound No. 3]
—: Phytotoxicity: Tea (Tea) | Phytotoxicity: Tomato (Tomato) | Phytotoxicity: Kidney Bean (Kidney Bean) | Phytotoxicity: Cotton (Cotton) | Phytotoxicity: Beet (Beet) | Phytotoxicity: Green Pepper (Green Pepper) | Phytotoxicity: Rice (Rice) | Phytotoxicity: Apple (Apple) | Phytotoxicity: Cabbage (Cabbage) | Phytotoxicity: Cucumber (Cucumber) | Phytotoxicity: Egg Plant (egg plant)
100%: Percent Mortality (%) (rice stem borer; [3]) | Percent Mortality (%) (tobacco cutworm [1]; [4])

CCOP(=O)(Oc1ccc2c(c1)OC(C)=CC2(C)C)SCC (stereo not drawn) [Compound No. 8]
100%: Percent Mortality (%) (rice stem borer; [3]) | Percent Mortality (%) (tobacco cutworm [1]; [4])
—: Phytotoxicity: Tea (Tea) | Phytotoxicity: Tomato (Tomato) | Phytotoxicity: Kidney Bean (Kidney Bean) | Phytotoxicity: Cotton (Cotton) | Phytotoxicity: Beet (Beet) | Phytotoxicity: Green Pepper (Green Pepper) | Phytotoxicity: Rice (Rice) | Phytotoxicity: Apple (Apple) | Phytotoxicity: Cabbage (Cabbage) | Phytotoxicity: Cucumber (Cucumber) | Phytotoxicity: Egg Plant (egg plant)

CCCOP(=O)(Oc1ccc2c(c1)OC(C)=CC2(C)C)SC (stereo not drawn) [Compound No. 13]
100%: Percent Mortality (%) (rice stem borer; [3]) | Percent Mortality (%) (tobacco cutworm [1]; [4])
—: Phytotoxicity: Tea (Tea) | Phytotoxicity: Tomato (Tomato) | Phytotoxicity: Kidney Bean (Kidney Bean) | Phytotoxicity: Cotton (Cotton) | Phytotoxicity: Beet (Beet) | Phytotoxicity: Green Pepper (Green Pepper) | Phytotoxicity: Rice (Rice) | Phytotoxicity: Apple (Apple) | Phytotoxicity: Cabbage (Cabbage) | Phytotoxicity: Cucumber (Cucumber) | Phytotoxicity: Egg Plant (egg plant)

CCCSP(=O)(OCC)Oc1ccc2c(c1)OC(CC)=C(C)C2(CC)CC (stereo not drawn) [Compound No. 21, O-ethyl-S-propyl-O-(2,4,4-triethyl-3-methyl-1,2-benzopyran-7-yl)phosphorothioate]
—: Phytotoxicity: Tea (Tea) | Phytotoxicity: Tomato (Tomato) | Phytotoxicity: Kidney Bean (Kidney Bean) | Phytotoxicity: Cotton (Cotton) | Phytotoxicity: Beet (Beet) | Phytotoxicity: Green Pepper (Green Pepper) | Phytotoxicity: Rice (Rice) | Phytotoxicity: Apple (Apple) | Phytotoxicity: Cabbage (Cabbage) | Phytotoxicity: Cucumber (Cucumber) | Phytotoxicity: Egg Plant (egg plant)
100%: Percent Mortality (%) (rice stem borer; [5]) | Percent Mortality (%) (rice stem borer; [3]) | Percent Mortality (%) (rice stem borer; [6]) | Percent Mortality (%) (tobacco cutworm [1]; [7])

CCOP(=S)(Oc1cccc2c1C(C)=CC(C)(C)O2)SC(C)CC (stereo not drawn) [Compound No. 27]
100%: Percent Mortality (%) (rice stem borer; [6]) | Percent Mortality (%) (tobacco cutworm [1]; [7])
—: Phytotoxicity: Tea (Tea) | Phytotoxicity: Tomato (Tomato) | Phytotoxicity: Kidney Bean (Kidney Bean) | Phytotoxicity: Cotton (Cotton) | Phytotoxicity: Beet (Beet) | Phytotoxicity: Green Pepper (Green Pepper) | Phytotoxicity: Rice (Rice) | Phytotoxicity: Apple (Apple) | Phytotoxicity: Cabbage (Cabbage) | Phytotoxicity: Cucumber (Cucumber) | Phytotoxicity: Egg Plant (egg plant)

COP(=O)(OC)C(O)C(Cl)(Cl)Cl (stereo not drawn) [Dipterex, dimethyl 2,2,2-trichloro-1-hydroxyethyl phosphonate, reference compound]
100%: Percent Mortality (%) (rice stem borer; [5]) | Percent Mortality (%) (rice stem borer; [3])

CNC(=O)ON=C(C)SC [Lannate, S-methyl N-(methylcarbamoyloxy)thioacetimidate, reference compound]
80%: Percent Mortality After Application 3rd Day (tobacco cutworm [2]; leaves cut on 3rd day)
30%: Percent Mortality After Application 5th Day (tobacco cutworm [2]; leaves cut on 5th day)
7%: Percent Mortality After Application 7th Day (tobacco cutworm [2]; leaves cut on 7th day)
0%: Percent Mortality After Application 10th Day (tobacco cutworm [2]; leaves cut on 10th day) | Percent Mortality After Application 15th Day (tobacco cutworm [2]; leaves cut on 15th day)

COP(=O)(NC(C)=O)SC (stereo not drawn) [Orthene, O,S-dimethyl acetylphosphoramidothioate, reference compound]
90.0%: Percent Mortality (%) (tobacco cutworm [1]; [4])

COP(=S)(OC)Oc1ccc([N+](=O)[O-])c(C)c1 [Sumithion, dimethyl(3-methyl-4-nitrophenyl)thiophosphate, reference compound]
100%: Percent Mortality (%) (rice stem borer; Table 2, concentration not given)

CCCCOP(=O)(Oc1ccc2c(c1)OC(C)=CC2(C)C)SCCC (stereo not drawn) [compound 4]
100%: Percent Mortality (%) (rice stem borer; [3]) | Percent Mortality (%) (tobacco cutworm [1]; [4])
—: Phytotoxicity: Tea (Tea) | Phytotoxicity: Tomato (Tomato) | Phytotoxicity: Kidney Bean (Kidney Bean) | Phytotoxicity: Cotton (Cotton) | Phytotoxicity: Beet (Beet) | Phytotoxicity: Green Pepper (Green Pepper) | Phytotoxicity: Rice (Rice) | Phytotoxicity: Apple (Apple) | Phytotoxicity: Cabbage (Cabbage) | Phytotoxicity: Cucumber (Cucumber) | Phytotoxicity: Egg Plant (egg plant)

CCOP(=S)(Oc1ccc2c(c1)OC(C)=CC2(C)C)SCC (stereo not drawn) [compound 12]
—: Phytotoxicity: Tea (Tea) | Phytotoxicity: Tomato (Tomato) | Phytotoxicity: Kidney Bean (Kidney Bean) | Phytotoxicity: Cotton (Cotton) | Phytotoxicity: Beet (Beet) | Phytotoxicity: Green Pepper (Green Pepper) | Phytotoxicity: Rice (Rice) | Phytotoxicity: Apple (Apple) | Phytotoxicity: Cabbage (Cabbage) | Phytotoxicity: Cucumber (Cucumber) | Phytotoxicity: Egg Plant (egg plant)
100%: Percent Mortality (%) (rice stem borer; [3]) | Percent Mortality (%) (tobacco cutworm [1]; [4])
